The results in this text go back to patent EP0029697A1, “Pharmaceutical compositions for the treatment of neoplastic diseases and process therefor” (Gosalvez, Mario Gosalvez, priority 1979, dated 1981).

One data set concerns Hela cells. The data set is described as follows: Restoration of contact inhibition in colonies of Hela cells. The class given is cell-based, human. The method, then:
Hela cells, a type of cell derived from human uterine tumor, were seeded in Eagle culture flasks at the concentration of 50 cells/cm^2. The cells were allowed to develop colonies during a period of 10 days with two changes of the medium on the second and sixth day. A tissue culture (minimum essential medium of Eagle with 10% calf serum) comprising amino acids, vitamins and glucose was employed.
2-Amino-2-thiazoline, obtained by treatment of the hydrochloride with a molar equivalent of sodium hydroxide, was added to the medium at varying concentrations on both the second day and the sixth day, after the initiation of the culture. A total of 3 flasks containing the cultured colonies were used for each concentration of 2-amino-2-thiazoline employed. On the tenth day, the cells were fixed in neutral formol and were stained with hematoxyline. A total of 500 colonies of the same size in each flask were counted at random and the percentage of colonies with contact inhibition (planar morphology) or without contact inhibition (pyrimidal or acuminated morphology) were noted.

The next data set in a line: Toxicity to humans. The note with it: doses up to at least 100 mg/kg. The class given is in vivo. The method, then: 2-amino-2-thiazoline and 2-amino-2-thiazoline hydrochloride are also non-toxic to humans in doses up to at least 100 mg/kg. Therefore, the dosage administered can vary over a wide range, without concern that undesirable side-effects will result from large dosages.

A further data set relates to Leukemia 1210. The data set is described as follows: Effect on mouse tumors: survival time, leukemia 1210. The class given is in vivo. The note with it: mice inoculated with leukemia 1210. The method, then: (§1) The effect of 2-amino-2-thiazoline on mouse tumors (le'ukemia 1210 and Lewis Lung carcinoma) was also tested. […] However, it is knwon that the cells associated with those tumors are extremely undifferentiated from normal cells so as to have lost all or nearly all of the cytoskeletal system of contractile microfilaments. Such cells would be expected to be insensitive to agents which induce reverse transformation. Leukemia 1210 and Lewis Lung carcinoma are transplantable tumors and, upon transplantation, they have lost the tissue specific membrane receptors which are the target of 2-amino-2-thiazoline.

Another data set has as its system Lewis Lung carcinoma. Description: Effect on mouse tumors: survival time, Lewis Lung carcinoma. The class given is in vivo. The note with it: mice inoculated with Lewis Lung carcinoma. Here is the method: as §1
The subject of another data set is bladder tumor receptor. Description: Preliminary study of biochemical affinity with tumor membrane receptors (bladder). The class given is binding. The text has this: (§2) The preceding description is but illustrative of the practice of the invention and it is to be understood that other expedients may be employed by those skilled in the art without departure from the scope of the invention. Data on human tumors have been provided for bladder cancer because in a preliminary study of the biochemical affinity of 2-amino-2-thiazoline with tumor membrane receptors, the affinity with the bladder tumor receptor was very high. […] Therefore, it is claimed that 2-amino-2-thiazoline is an antitumor agent for mammalian cancer acting without toxicity by inducing reverse transformation.

The test system of data set [1] is other tumor receptors of different tissue origin. Description: Preliminary study of biochemical affinity with tumor membrane receptors (other tissues). The class given is binding.
Text: as §2

Data set [2] concerns tumors of various origins. Description: Preliminary clinical trial in tumors of various origins. The class given is in vivo.
Text: as §2

The test system of data set [3] is advanced metastastic bladder cancer. The data set is described as follows: Clinical trial in patients with advanced metastatic bladder cancer. The class given is in vivo, humans. Here is the method:
Clinical trials with 2-amino-2-thiazoline hydrochloride have been conducted on 9 patients suffering from advanced metastastic bladder cancer, not amenable to any other treatment.
Only patients with measurable and progressing bladder tumors and lung metastases the growth rate of which was measured weekly in X-ray plates for serveral weeks before beginning the treatment were admitted to the trial. The development of the bladder tumors was measured by cytos- copy after biopsy.
Each of the patients were intravenously administered 2-amino-2-thiazoline-hydrochloride, as an aqueous solution (25-75 mg/ml) at the dose of 1.5 mg/kg of body weight on a daily basis per 5 days, every three weeks (the first 5 patients), and at dose of 3 mg/kg daily per 5 days every three weeks (the following 4 patients).

Setting [4] is: 1 μMol, added on day 2 and day 6, read on day 10.
Where [5] appears, read: 2 μMol, added on day 2 and day 6, read on day 10.
Where [6] appears, read: 5 μMol, added on day 2 and day 6, read on day 10.
Setting [7] is: 10 μMol, added on day 2 and day 6, read on day 10.
[8] abbreviates: 20 μMol, added on day 2 and day 6, read on day 10.
Where [9] appears, read: patient 1, bladder carcinoma, lesion lung and bladder, total dose 2.5 gr, i.v. 1.5 mg/kg daily per 5 days every three weeks.
Where [10] appears, read: patient 2, bladder carcinoma, lesion lung and bladder, total dose 3.2 gr, i.v. 1.5 mg/kg daily per 5 days every three weeks.
Setting [11] is: patient 3, bladder carcinoma, lesion lung and bladder, total dose 2.8 gr, i.v. 1.5 mg/kg daily per 5 days every three weeks.
Where [12] appears, read: patient 4, bladder carcinoma, lesion bladder, total dose 3.7 gr, i.v. 1.5 mg/kg daily per 5 days every three weeks.
The mark [13] stands for this setting: patient 5, bladder carcinoma, lesion lung and bladder, total dose 4.9 gr, i.v. 1.5 mg/kg daily per 5 days every three weeks.
[14] abbreviates: patient 6, bladder carcinoma, lesion bladder, total dose 12 gr, i.v. 3 mg/kg daily per 5 days every three weeks.
Setting [15] is: patient 7, bladder carcinoma, lesion lung and bladder, total dose 9.6 gr, i.v. 3 mg/kg daily per 5 days every three weeks.
The mark [16] stands for this setting: patient 8, bladder carcinoma, lesion lung and bladder, total dose 11.8 gr, i.v. 3 mg/kg daily per 5 days every three weeks.
Where [17] appears, read: patient 9, bladder carcinoma, lesion lung and bladder, total dose 10.8 gr, i.v. 3 mg/kg daily per 5 days every three weeks.

`NC1=NCCS1` [2-Amino-2-thiazoline]: the “Colonies without contact inhibition” value in the data set with Hela cells (setting [4]) amounted to 42%; with Hela cells (setting [5]) it was 41%; with Hela cells (setting [6]), 25%; with Hela cells (setting [7]), 14%; in the data set with Hela cells (setting [8]), 0%. For the same compound, the “Total number of colonies” value in the data set on Hela cells (setting [4]) is 100%; in the data set with Hela cells (setting [5]), 100%; in the data set on Hela cells (setting [6]), 85%; in the data set on Hela cells (setting [7]) it was 75%; in the data set on Hela cells (setting [8]), 45%. The “Colonies with contact inhibition” value in the data set with Hela cells (1 μMol, added on day 2 and day 6, read on day 10, 500 colonies per flask) is 58%; in the data set with Hela cells (setting [5]) it was 59%; with Hela cells (setting [6]), 75%; with Hela cells (setting [7]), 86%; in the data set on Hela cells (20 μMol (maximum dosage), added on day 2 and day 6, read on day 10) it was 100%. Also, the Toxicity entry in the data set “Toxicity to humans” was “non-toxic”. In addition, the “increasing the survival time of the mice” value in the data set on Leukemia 1210 and in the data set on Lewis Lung carcinoma was “completely inactive” each time. The “biochemical affinity with tumor membrane receptors” value with bladder tumor receptor is listed as “very high”. The “affinity for other tumor receptors” value in data set [1] is on record as “shown affinity”. The clinical response result in data set [2] is “stabilization and minor remissions”.
In the case of `Cl.NC1=NCCS1` [2-Amino-2-thiazoline·HCl, 2-amino-2-thiazoline hydrochloride], the Toxicity entry is “None of the patients showed any toxicity” in data set [3] (all 9 patients, i.v. 1.5 or 3 mg/kg daily per 5 days every three weeks); “none” in data set [3] (setting [9]); “none” in data set [3] (setting [10]); “none” in data set [3] (setting [11]); “none” in data set [3] (setting [12]); “none” in data set [3] (setting [13]). Besides, the Toxicity result is “none” in data set [3] (setting [14]); “none” in data set [3] (setting [15]); “none” in data set [3] (setting [16]); “none” in data set [3] (setting [17]); “non-toxic” in the data set “Toxicity to humans”. In addition, the “objective responses (mor than 50% reduction of tumor size)” value in data set [3] (number of responders out of the 9 cases, combined area of lung metastasis and size of the cystoscopic lesion) was 4. Moreover, the Response result in data set [3] (setting [9]) is reported as “complete remission”; in data set [3] (setting [10]), “partial remission”; in data set [3] (setting [11]), “complete remission”; in data set [3] (setting [12]) it was “stabilization”; in data set [3] (setting [13]), “stabilization”; in data set [3] (setting [14]) it was “complete remission”. In addition, the Response result in data set [3] (setting [15]) is on record as “complete remission”; in data set [3] (setting [16]), “stabilization”; in data set [3] (setting [17]) it was “stabilization”.
